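Protocol summary: plate cells (96-well), add compound at 5 concentrations, incubate 48 h, interpolate endpoints linearly. At the TGI there is no net growth.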
tested on: OVCAR-5 ovarian; experiment: NCI tumour cell line growth inhibition, 48 h

Compound | TGI [µM]
COc1cccc(CCCNC(=O)Cc2cc(OC)c(OC)cc2CO)c1 | > 100
COc1cc(C2c3cc4c(cc3OC(NN)C2C)OCO4)cc(OC)c1OC (centres undefined) | > 100
Cc1cccc2c1CC1(C2)Cc2c(C)cccc2C1=O (centres undefined) | > 100
NS(=O)(=O)c1cc2c(cc1Cl)NC(CCC(=O)O)=NS2(=O)=O | > 100

tested on: RPMI-8226 leukemia; experiment: NCI tumour cell line growth inhibition, 48 h

Compound | TGI [µM]
COc1cc(C2c3cc4c(cc3OC(NN)C2C)OCO4)cc(OC)c1OC (centres undefined) | 67.7
Cc1cccc2c1CC1(C2)Cc2c(C)cccc2C1=O (centres undefined) | 43
NS(=O)(=O)c1cc2c(cc1Cl)NC(CCC(=O)O)=NS2(=O)=O | > 100

tested on: SF-268 CNS; experiment: NCI tumour cell line growth inhibition, 48 h

Compound | TGI [µM]
COc1cc(C2c3cc4c(cc3OC(NN)C2C)OCO4)cc(OC)c1OC (centres undefined) | > 100
Cc1cccc2c1CC1(C2)Cc2c(C)cccc2C1=O (centres undefined) | 87.1
NS(=O)(=O)c1cc2c(cc1Cl)NC(CCC(=O)O)=NS2(=O)=O | > 100

tested on: NCI-H460 lung; experiment: NCI tumour cell line growth inhibition, 48 h

Compound | TGI [µM]
COc1cccc(CCCNC(=O)Cc2cc(OC)c(OC)cc2CO)c1 | > 100
COc1cc(C2c3cc4c(cc3OC(NN)C2C)OCO4)cc(OC)c1OC (centres undefined) | > 100
Cc1cccc2c1CC1(C2)Cc2c(C)cccc2C1=O (centres undefined) | 83.2
NS(=O)(=O)c1cc2c(cc1Cl)NC(CCC(=O)O)=NS2(=O)=O | > 100

tested on: MOLT-4 leukemia; experiment: NCI tumour cell line growth inhibition, 48 h

Compound | TGI [µM]
COc1cccc(CCCNC(=O)Cc2cc(OC)c(OC)cc2CO)c1 | > 100
COc1cc(C2c3cc4c(cc3OC(NN)C2C)OCO4)cc(OC)c1OC (centres undefined) | > 100
Cc1cccc2c1CC1(C2)Cc2c(C)cccc2C1=O (centres undefined) | 30.2

tested on: M14 melanoma; experiment: NCI tumour cell line growth inhibition, 48 h

Compound | TGI [µM]
COc1cccc(CCCNC(=O)Cc2cc(OC)c(OC)cc2CO)c1 | > 100
COc1cc(C2c3cc4c(cc3OC(NN)C2C)OCO4)cc(OC)c1OC (centres undefined) | > 100
Cc1cccc2c1CC1(C2)Cc2c(C)cccc2C1=O (centres undefined) | 77.7
NS(=O)(=O)c1cc2c(cc1Cl)NC(CCC(=O)O)=NS2(=O)=O | > 100

tested on: MDA-MB-231 breast; experiment: NCI tumour cell line growth inhibition, 48 h

Compound | TGI [µM]
COc1cccc(CCCNC(=O)Cc2cc(OC)c(OC)cc2CO)c1 | > 100
COc1cc(C2c3cc4c(cc3OC(NN)C2C)OCO4)cc(OC)c1OC (centres undefined) | > 91.1
Cc1cccc2c1CC1(C2)Cc2c(C)cccc2C1=O (centres undefined) | 53.7
NS(=O)(=O)c1cc2c(cc1Cl)NC(CCC(=O)O)=NS2(=O)=O | > 100

tested on: DU-145 prostate; experiment: NCI tumour cell line growth inhibition, 48 h

Compound | TGI [µM]
COc1cccc(CCCNC(=O)Cc2cc(OC)c(OC)cc2CO)c1 | > 100
COc1cc(C2c3cc4c(cc3OC(NN)C2C)OCO4)cc(OC)c1OC (centres undefined) | > 100
Cc1cccc2c1CC1(C2)Cc2c(C)cccc2C1=O (centres undefined) | 77.3
NS(=O)(=O)c1cc2c(cc1Cl)NC(CCC(=O)O)=NS2(=O)=O | > 100

tested on: SF-295 CNS; experiment: NCI tumour cell line growth inhibition, 48 h

Compound | TGI [µM]
COc1cc(C2c3cc4c(cc3OC(NN)C2C)OCO4)cc(OC)c1OC (centres undefined) | > 22.7
Cc1cccc2c1CC1(C2)Cc2c(C)cccc2C1=O (centres undefined) | 68.8
NS(=O)(=O)c1cc2c(cc1Cl)NC(CCC(=O)O)=NS2(=O)=O | > 100

tested on: HOP-62 NSCLC; experiment: NCI tumour cell line growth inhibition, 48 h

Compound | TGI [µM]
COc1cccc(CCCNC(=O)Cc2cc(OC)c(OC)cc2CO)c1 | > 100
COc1cc(C2c3cc4c(cc3OC(NN)C2C)OCO4)cc(OC)c1OC (centres undefined) | 8.55
Cc1cccc2c1CC1(C2)Cc2c(C)cccc2C1=O (centres undefined) | 54.5
NS(=O)(=O)c1cc2c(cc1Cl)NC(CCC(=O)O)=NS2(=O)=O | > 100

tested on: A549 NSCLC; experiment: NCI tumour cell line growth inhibition, 48 h

Compound | TGI [µM]
COc1cccc(CCCNC(=O)Cc2cc(OC)c(OC)cc2CO)c1 | > 100
COc1cc(C2c3cc4c(cc3OC(NN)C2C)OCO4)cc(OC)c1OC (centres undefined) | > 100
Cc1cccc2c1CC1(C2)Cc2c(C)cccc2C1=O (centres undefined) | > 100
NS(=O)(=O)c1cc2c(cc1Cl)NC(CCC(=O)O)=NS2(=O)=O | > 100

tested on: HS 578T breast; experiment: NCI tumour cell line growth inhibition, 48 h

Compound | TGI [µM]
COc1cccc(CCCNC(=O)Cc2cc(OC)c(OC)cc2CO)c1 | > 100
COc1cc(C2c3cc4c(cc3OC(NN)C2C)OCO4)cc(OC)c1OC (centres undefined) | > 100
Cc1cccc2c1CC1(C2)Cc2c(C)cccc2C1=O (centres undefined) | > 100
NS(=O)(=O)c1cc2c(cc1Cl)NC(CCC(=O)O)=NS2(=O)=O | > 100

tested on: U251 CNS; experiment: NCI tumour cell line growth inhibition, 48 h

Compound | TGI [µM]
COc1cccc(CCCNC(=O)Cc2cc(OC)c(OC)cc2CO)c1 | > 100
COc1cc(C2c3cc4c(cc3OC(NN)C2C)OCO4)cc(OC)c1OC (centres undefined) | 16.2
Cc1cccc2c1CC1(C2)Cc2c(C)cccc2C1=O (centres undefined) | 65.4
NS(=O)(=O)c1cc2c(cc1Cl)NC(CCC(=O)O)=NS2(=O)=O | > 100

tested on: T-47D breast; experiment: NCI tumour cell line growth inhibition, 48 h

Compound | TGI [µM]
COc1cccc(CCCNC(=O)Cc2cc(OC)c(OC)cc2CO)c1 | > 100
COc1cc(C2c3cc4c(cc3OC(NN)C2C)OCO4)cc(OC)c1OC (centres undefined) | > 100
Cc1cccc2c1CC1(C2)Cc2c(C)cccc2C1=O (centres undefined) | > 100
NS(=O)(=O)c1cc2c(cc1Cl)NC(CCC(=O)O)=NS2(=O)=O | > 100

tested on: MDA-N; experiment: NCI tumour cell line growth inhibition, 48 h

Compound | TGI [µM]
COc1cccc(CCCNC(=O)Cc2cc(OC)c(OC)cc2CO)c1 | > 100
COc1cc(C2c3cc4c(cc3OC(NN)C2C)OCO4)cc(OC)c1OC (centres undefined) | > 100
Cc1cccc2c1CC1(C2)Cc2c(C)cccc2C1=O (centres undefined) | 61.8
NS(=O)(=O)c1cc2c(cc1Cl)NC(CCC(=O)O)=NS2(=O)=O | > 100

tested on: HCT-15 colon; experiment: NCI tumour cell line growth inhibition, 48 h

Compound | TGI [µM]
COc1cccc(CCCNC(=O)Cc2cc(OC)c(OC)cc2CO)c1 | > 100
COc1cc(C2c3cc4c(cc3OC(NN)C2C)OCO4)cc(OC)c1OC (centres undefined) | > 37.4
Cc1cccc2c1CC1(C2)Cc2c(C)cccc2C1=O (centres undefined) | > 100
NS(=O)(=O)c1cc2c(cc1Cl)NC(CCC(=O)O)=NS2(=O)=O | > 100

tested on: UACC-62 melanoma; experiment: NCI tumour cell line growth inhibition, 48 h

Compound | TGI [µM]
COc1cccc(CCCNC(=O)Cc2cc(OC)c(OC)cc2CO)c1 | > 100
COc1cc(C2c3cc4c(cc3OC(NN)C2C)OCO4)cc(OC)c1OC (centres undefined) | > 100
NS(=O)(=O)c1cc2c(cc1Cl)NC(CCC(=O)O)=NS2(=O)=O | > 100

tested on: NCI-H226 lung; experiment: NCI tumour cell line growth inhibition, 48 h

Compound | TGI [µM]
COc1cccc(CCCNC(=O)Cc2cc(OC)c(OC)cc2CO)c1 | > 100
COc1cc(C2c3cc4c(cc3OC(NN)C2C)OCO4)cc(OC)c1OC (centres undefined) | > 24.4
Cc1cccc2c1CC1(C2)Cc2c(C)cccc2C1=O (centres undefined) | 61
NS(=O)(=O)c1cc2c(cc1Cl)NC(CCC(=O)O)=NS2(=O)=O | > 100

tested on: NCI-H522 lung; experiment: NCI tumour cell line growth inhibition, 48 h

Compound | TGI [µM]
COc1cc(C2c3cc4c(cc3OC(NN)C2C)OCO4)cc(OC)c1OC (centres undefined) | 8.96
Cc1cccc2c1CC1(C2)Cc2c(C)cccc2C1=O (centres undefined) | 59.3
NS(=O)(=O)c1cc2c(cc1Cl)NC(CCC(=O)O)=NS2(=O)=O | > 100

tested on: SN12C renal; experiment: NCI tumour cell line growth inhibition, 48 h

Compound | TGI [µM]
COc1cccc(CCCNC(=O)Cc2cc(OC)c(OC)cc2CO)c1 | > 100
COc1cc(C2c3cc4c(cc3OC(NN)C2C)OCO4)cc(OC)c1OC (centres undefined) | > 100
Cc1cccc2c1CC1(C2)Cc2c(C)cccc2C1=O (centres undefined) | 74.2
NS(=O)(=O)c1cc2c(cc1Cl)NC(CCC(=O)O)=NS2(=O)=O | > 100

tested on: SK-OV-3 ovarian; experiment: NCI tumour cell line growth inhibition, 48 h

Compound | TGI [µM]
COc1cc(C2c3cc4c(cc3OC(NN)C2C)OCO4)cc(OC)c1OC (centres undefined) | > 100
Cc1cccc2c1CC1(C2)Cc2c(C)cccc2C1=O (centres undefined) | > 100
NS(=O)(=O)c1cc2c(cc1Cl)NC(CCC(=O)O)=NS2(=O)=O | > 100

tested on: HT29 colon; experiment: NCI tumour cell line growth inhibition, 48 h

Compound | TGI [µM]
COc1cccc(CCCNC(=O)Cc2cc(OC)c(OC)cc2CO)c1 | > 100
Cc1cccc2c1CC1(C2)Cc2c(C)cccc2C1=O (centres undefined) | 97.2
NS(=O)(=O)c1cc2c(cc1Cl)NC(CCC(=O)O)=NS2(=O)=O | > 100

tested on: OVCAR-3 ovarian; experiment: NCI tumour cell line growth inhibition, 48 h

Compound | TGI [µM]
COc1cccc(CCCNC(=O)Cc2cc(OC)c(OC)cc2CO)c1 | > 100
COc1cc(C2c3cc4c(cc3OC(NN)C2C)OCO4)cc(OC)c1OC (centres undefined) | 1.04
Cc1cccc2c1CC1(C2)Cc2c(C)cccc2C1=O (centres undefined) | 51.1
NS(=O)(=O)c1cc2c(cc1Cl)NC(CCC(=O)O)=NS2(=O)=O | > 100

tested on: SNB-19 CNS; experiment: NCI tumour cell line growth inhibition, 48 h

Compound | TGI [µM]
COc1cccc(CCCNC(=O)Cc2cc(OC)c(OC)cc2CO)c1 | > 100
COc1cc(C2c3cc4c(cc3OC(NN)C2C)OCO4)cc(OC)c1OC (centres undefined) | > 100
Cc1cccc2c1CC1(C2)Cc2c(C)cccc2C1=O (centres undefined) | > 100
NS(=O)(=O)c1cc2c(cc1Cl)NC(CCC(=O)O)=NS2(=O)=O | > 100

tested on: OVCAR-4 ovarian; experiment: NCI tumour cell line growth inhibition, 48 h

Compound | TGI [µM]
COc1cccc(CCCNC(=O)Cc2cc(OC)c(OC)cc2CO)c1 | > 100
COc1cc(C2c3cc4c(cc3OC(NN)C2C)OCO4)cc(OC)c1OC (centres undefined) | > 100
Cc1cccc2c1CC1(C2)Cc2c(C)cccc2C1=O (centres undefined) | > 100
NS(=O)(=O)c1cc2c(cc1Cl)NC(CCC(=O)O)=NS2(=O)=O | > 100

tested on: ACHN renal; experiment: NCI tumour cell line growth inhibition, 48 h

Compound | TGI [µM]
COc1cccc(CCCNC(=O)Cc2cc(OC)c(OC)cc2CO)c1 | > 100
COc1cc(C2c3cc4c(cc3OC(NN)C2C)OCO4)cc(OC)c1OC (centres undefined) | > 100
Cc1cccc2c1CC1(C2)Cc2c(C)cccc2C1=O (centres undefined) | 84.3
NS(=O)(=O)c1cc2c(cc1Cl)NC(CCC(=O)O)=NS2(=O)=O | > 100

tested on: CCRF-CEM leukemia; experiment: NCI tumour cell line growth inhibition, 48 h

Compound | TGI [µM]
COc1cccc(CCCNC(=O)Cc2cc(OC)c(OC)cc2CO)c1 | > 100
COc1cc(C2c3cc4c(cc3OC(NN)C2C)OCO4)cc(OC)c1OC (centres undefined) | > 93
Cc1cccc2c1CC1(C2)Cc2c(C)cccc2C1=O (centres undefined) | 56.9

tested on: 786-0 renal; experiment: NCI tumour cell line growth inhibition, 48 h

Compound | TGI [µM]
COc1cccc(CCCNC(=O)Cc2cc(OC)c(OC)cc2CO)c1 | > 100
COc1cc(C2c3cc4c(cc3OC(NN)C2C)OCO4)cc(OC)c1OC (centres undefined) | > 100
Cc1cccc2c1CC1(C2)Cc2c(C)cccc2C1=O (centres undefined) | 70.2
NS(=O)(=O)c1cc2c(cc1Cl)NC(CCC(=O)O)=NS2(=O)=O | > 100

tested on: UO-31 renal; experiment: NCI tumour cell line growth inhibition, 48 h

Compound | TGI [µM]
COc1cccc(CCCNC(=O)Cc2cc(OC)c(OC)cc2CO)c1 | > 100
COc1cc(C2c3cc4c(cc3OC(NN)C2C)OCO4)cc(OC)c1OC (centres undefined) | > 100
Cc1cccc2c1CC1(C2)Cc2c(C)cccc2C1=O (centres undefined) | > 100
NS(=O)(=O)c1cc2c(cc1Cl)NC(CCC(=O)O)=NS2(=O)=O | > 100

tested on: SF-539 CNS; experiment: NCI tumour cell line growth inhibition, 48 h

Compound | TGI [µM]
COc1cc(C2c3cc4c(cc3OC(NN)C2C)OCO4)cc(OC)c1OC (centres undefined) | 0.6
Cc1cccc2c1CC1(C2)Cc2c(C)cccc2C1=O (centres undefined) | 57.1

From PubChem BioAssay (NCI)
